Legend:
[1] = test system: human acute myeloid leukemia cell line CMK-11-5; assay: In vitro combined use test, Cell Counting Kit-8; type: cell-based; conditions: 72 hours
Method: A human acute myeloid leukemia cell line CMK-11-5 was prepared in an RPMI medium containing 10% FBS (10% FBS-RPMI medium) at about 30000 cells/mL, and seeded in a 96 well plate at 50 μL/well. To this, 10% FBS-RPMI medium containing ABBV-075 having 4 times higher concentration than the final concentration was added at 25 μL/well. Furthermore, 10% FBS-RPMI medium containing the compound A having 4 times higher concentration than the final concentration was added at 25 μL/well (final volume: 100 μL/well DMSO concentration: 0.2%). The plate was incubated at 37° C. in humidified air including 5% CO2 for 72 hours. After culturing, absorbance at 450 nm of a formazan product, proportional to the number of living cells, was measured using Cell Counting Kit-8. Percentage (%) of absorbance at 450 nm of each compound-treated group with respect to absorbance at 450 nm of the vehicle group was calculated.

[2] = test system: mouse pancreatic cancer cell line Pan02 orthotopic implantation model; assay: Antitumor action, orthotopic transplantation model, survival; type: in vivo; conditions: Pan02 orthotopic implantation mice; compound A 20 mg/kg/day via the diet; gemcitabine 60 mg/kg i.p. twice a week; Day 0 to Day 95
Method: For the compound A, mouse feed CRF-1 containing 0.013% compound A was manufactured by Oriental Yeast Co., Ltd. so as to be administered in 20 mg/kg/day as administration via the diet. Gemcitabine was obtained from Wako Pure Chemical Industries, Ltd. C57/BL6 mouse pancreatic cancer cell line Pan02 was transplanted into the pancreas of the same type syngeneic mice (C57/BL6, female, 6-week old (Charles River Laboratories Japan, Inc.)) to produce Pan02 orthotopic implantation mice. On day 7 after transplantation, based on the body weight, the mice were assigned to four groups, i.e., a vehicle group, a gemcitabine group, compound A group, a combined use group of gemcitabine+compound A, and the compound A (each n=8 to 9). The day on which group assignment was carried out was defined as Day 0. To the vehicle group and the compound A group, PBS (10 mL/kg, twice a week) was intraperitoneally administered. To the gemcitabine group and a combined use group of gemcitabine+compound A, gemcitabine (60 mg/10 mL/kg, twice a week) was administered by intraperitoneal administration. To the compound A group and the combined use group of gemcitabine+compound A, CRF-1 containing 0.013% compound A was fed from Day 0. From Day 0 to Day 95, the survival time of each mouse in each group was evaluated. […]

[3] = test system: human acute lymphatic leukemia cell line CCRF-HSB-2; assay: In vitro combined use test, Cell Titer-Glo; type: cell-based; conditions: 72 hours
Method: A human acute lymphatic leukemia cell line CCRF-HSB-2 was prepared in an IMDM medium containing 10% FBS (10% FBS-IMDM medium) at about 200000 cells/mL, and seeded in a 96 well plate at 50 μL/well. […] The plate was incubated at 37° C. in humidified air including 5% CO2 for 72 hours. After culturing, relative luminescence unit (RLU), proportional to cellular endogenous ATP amount, was measured by Cell Titer-Glo Luminescent Cell Viability Assay (registered trademark). Percentage (%) of RLU of each compound-treated group relative to RLU of the vehicle group was measured.

[4] = test system: leukemia cells in bone marrow derived from patient with acute myeloid leukemia; assay: Proliferation test (CFDA-SE), bone marrow sample of acute myeloid leukemia patient, compound A combined with anticancer drugs; type: cell-based, human; conditions: 96 hours, Ci<1 synergistic action
Method: (§1) Initial evaluation: Bone marrow samples were obtained from an adult acute myeloid leukemia patient. […] Furthermore, to evaluate the initial survival rate of cells, Annexin V was added to the above-mentioned combination of MAb.
Proliferation test: Proliferation was measured using a CFDA-SE coloring agent. A coloring agent which had been prepared in advance was placed in 15-mL tube including bone marrow enough to obtain about 6000 cells/well of living leukemia cells. Thereafter, they were diluted with the medium such that the total volume became 1 mL. After the resultant product was mixed well by vortex, the mixture was incubated on a rotator at room temperature with light shielded for 10 minutes. Then, the tube was filled with cool RPMI1640 including 10% FBS (medium 2), and incubated on ice for 5 minutes to stop the reaction. Thereafter, the cells were washed with the medium 2 twice. For the final re-suspension before plating and incubation, the medium 1 replenished with a cytokine cocktail was used. […] The plate containing the sample was incubated at 37° C. in humidified air including 5% CO2 for 96 hours. In order to prepare a sample for analysis, erythrocytes were lysed after completion of incubation, and then, the sample was stained with the best combination of Mab and Annexin V to identify the leukemia cells in the sample. Finally, the plate was analyzed by ExviTech (registered trademark) platform.
Data analysis: Synergistic analysis was carried out by calculating Combination Index (Ci) as described in Cancer Research, Vol. 70, No. 2, pp. 440-446, 2010. […] Note here that the meaning of the Ci value is regarded as follows.
(§2) Ci<1: synergistic action, Ci=1: additive action, Ci>1: antagonistic action

[5] = test system: leukemia cells in bone marrow derived from patient with acute myeloid leukemia; assay: Reduction test, bone marrow sample of acute myeloid leukemia patient, compound A combined with anticancer drugs; type: cell-based, human; conditions: 96 hours, Ci<1 synergistic action
Method: as §1
The plate containing the sample was incubated at 37° C. in humidified air including 5% CO2 for 96 hours. In order to prepare a sample for analysis, erythrocytes were lysed after completion of incubation, and then, the sample was stained with the best combination of Mab and Annexin V to identify the leukemia cells in the sample. Finally, the plate was analyzed by ExviTech (registered trademark) platform.
Note here that the meaning of the Ci value is regarded as follows.
as §2

CCS(=O)(=O)Nc1ccc(Oc2ccc(F)cc2F)c(-c2cn(C)c(=O)c3[nH]ccc23)c1 [ABBV-075]
absorbance at 450 nm in combined use with compound A compared with single use of each agent [1]: lowered

COc1cc2nccc(Oc3ccc(NC(=O)c4cc5c(n(-c6ccccc6)c4=O)CCCC5=O)nc3)c2cc1OC [Compound A, N-{5-[(6,7-dimethoxy-4-quinolinyl)oxy]-2-pyridinyl}-2,5-dioxo-1-phenyl-1,2,5,6,7,8-hexahydro-3-quinolinecarboxamide]
Median value of survival days [2]: 54 days

Nc1ccn([C@@H]2O[C@H](CO)[C@@H](O)[C@@H]2O)c(=O)n1 [Cytarabine, cytarabine]
Ci median value in combined use with compound A [3]: 0.696
RLU in combined use with compound A compared with single use of each agent [3]: lowered

COc1cccc2c1C(=O)c1c(O)c3c(c(O)c1C2=O)C[C@@](O)(C(C)=O)C[C@@H]3O[C@H]1C[C@H](N)[C@H](O)[C@H](C)O1 [Daunorubicin, daunorubicin]
Ci median value in combined use with compound A [3]: 0.936
RLU in combined use with compound A compared with single use of each agent [3]: lowered

C[C@@H]1C[C@H]2[C@@H]3CCC4=CC(=O)C=C[C@]4(C)[C@@]3(F)[C@@H](O)C[C@]2(C)[C@@]1(O)C(=O)CO [Dexamethasone, dexamethasone]
Ci median value in combined use with compound A [3]: 0.589

Nc1ccn([C@@H]2O[C@H](CO)[C@@H](O)C2(F)F)c(=O)n1 [Gemcitabine, gemcitabine]
Median value of survival days [2]: 67 days

CCc1nc(C(N)=O)c(Nc2ccc(N3CCC(N4CCN(C)CC4)CC3)c(OC)c2)nc1NC1CCOCC1 [Gilteritinib, gilteritinib]
Ci median value in combined use with compound A [4]: 0.495

COc1cc(C(=O)O)ccc1NC(=O)[C@@H]1N[C@@H](CC(C)(C)C)[C@](C#N)(c2ccc(Cl)cc2F)[C@H]1c1cccc(Cl)c1F [Idasanutlin, idasanutlin]
Ci median value in combined use with compound A [5]: 0.719

CO[C@@H]1[C@H](N(C)C(=O)c2ccccc2)C[C@H]2O[C@]1(C)n1c3ccccc3c3c4c(c5c6ccccc6n2c5c31)C(=O)NC4 [Midostaurin, midostaurin]
Ci median value in combined use with compound A [4]: 0.673

CCCCc1nc2cc(/C=C/C(=O)NO)ccc2n1CCN(CC)CC [Plasinostat, plasinostat]
Ci median value in combined use with compound A [5]: 0.440

CC[C@@H]1C(=O)N(C)c2cnc(Nc3ccc(C(=O)N[C@H]4CC[C@H](N5CCN(CC6CC6)CC5)CC4)cc3OC)nc2N1C(C)C [Volasertib, volasertib]
Ci median value in combined use with compound A [4]: 0.830

Reference: patent US20200197385A1, “THERAPEUTIC AGENT FOR CANCER CONTAINING AXL INHIBITOR AS ACTIVE INGREDIENT” (ONO PHARMACEUTICAL CO., LTD., priority 2017, published 2020)
